Consider six compounds from PMC11680018, “Study of Cytotoxicity of Spiro-Fused [3-Azabicyclo[3.1.0]hexane]oxindoles and Cyclopropa[a]pyrrolizidine-oxindoles Against Tumor Cell Lines” (Pharmaceuticals, 2024).

Structures are written as SMILES. Several values for one entry are separate records, joined by “and”; a condition that tells them apart may be missing. Equal values may be shown once.

The subject of one test is K562 cells. Kind of test: Cell cycle analysis by flow cytometry. The test is classed as cell-based, human. Particulars: 24 h; for K562 cells in SubG1 phase: control 4.5 ± 0.9; for K562 cells in G2/M phase: control 23.1 ± 1.7; for K562 cells in S phase: control 31.9 ± 1.0; for K562 cells in G0/G1 phase: control 40.5 ± 1.3; for Total percentage of K562 cells in the SubG1 and G0/G1 phases: control 45.0%. From the text: Since growth inhibition may be a result of cell cycle arrest at a particular point, the specific antiproliferative activity of several cycloadducts was further evaluated by flow cytometry to study their impact on the progression of the cell cycle in K562 cells. The assay utilizes propidium iodide-based staining of DNA content to distinguish and measure the accumulation of cells in each cell cycle phase (SubG, G0/G1, S and G2/M).
The distribution of K562 cells in the G0/G1-, S- and G2/M-phases of the cell cycle was obtained by quantification of DNA content using flow cytometry in DAPI-stained cells. Briefly, cells were seeded at a density of 5 × 10^4 cells per well in 24-well plates. […] After incubation with drugs, the cells were harvested by pipetting. This was followed by treatment with 0.2 mg/mL saponin (Fluka, Waltham, MA, USA) and 0.05 mg/mL DAPI (Thermo scientific, Rockford, IL, USA). After washing, the samples were analyzed using a standard flow cytometer (BD FACSCanto II, Becton Dickinson, San Jose, CA, USA). A total of 10,000 events were acquired for the samples. Data processing was performed using the BD FACSDiva 9.0 software.
For orientation: In flow cytometry, cells or beads pass a laser one at a time.

In test [1] the test system is human melanoma (Sk-mel-2) cell line. The test is described as follows: Cell motility by scratch test. The test is classed as cell-based. Particulars: 10 μg/mL, 36 h, serum-free DMEM; nontreated cells 69.5 ± 17.2. Here is the method: To assess the potential ability of spiro-fused [3-azabicyclo[3.1.0]hexane]oxindoles 4, 11, 12, 18, 24 and cyclopropa[a]pyrrolizidine-2,3′-oxindole 2 to inhibit metastasis associated with cell motility, a scratch test was performed on the human melanoma (Sk-mel-2) cell line. Different fields were analyzed by bright field, and each scratch area was photographed at 0 and 36 h for non-toxic and fast cell visualization. Nontreated Sk-mel-2 cells filled 69.5 ± 17.2, 41.5 ± 5.3, 59.7 ± 8.1, 49.3 ± 5.3, 43.0 ± 12.6, 26.1 ± 2.5 and 55.9 ± 8.6% of the scratched strip while under treatment with spiro-fused oxindole derivatives 2, 4, 11, 12, 18 and 24 cells, respectively.
Cells were seeded at a density of 5 × 10^5 cells per dish onto petri dishes and grown to confluency. A 200 μL pipette tip was used to make scratch wounds and detached cells were removed after that by washing with phosphate-buffered saline. Culture media was replaced with serum-free DMEM in order to inhibit cell proliferation. Compounds to be screened were added at a dose of 10 μg/mL to the cultures and incubated for 36 h. Different fields were analyzed by bright field, and each scratch area was photographed at 0 and 36 h. Images were captured using an Axio Observer Z1 confocal microscope (Carl Zeiss MicroImaging GmbH, Jena, Germany). The percent of wound closure in five randomly chosen fields was calculated with ImageJ software, 1.52v.

As for `COC(=O)C1C2(c3ccccc3)C(Cc3ccc(O)cc3)NC3(C(=O)Nc4ccccc43)C12c1ccccc1` (centres unmarked) [Compound 17], in the test on K562 cells (5 μg/mL), the “K562 cells in SubG1 phase” value is reported as 2.5 ± 0.3%, the “K562 cells in G2/M phase” value amounted to 16.7 ± 1.0%, the “K562 cells in S phase” value was 25.1 ± 0.4% and the “K562 cells in G0/G1 phase” value is 55.6 ± 0.3%. Moreover, in the test with K562 cells (10 μg/mL), the “K562 cells in SubG1 phase” value was 5.3 ± 0.4%, the “K562 cells in G2/M phase” value worked out at 8.8 ± 0.4%, the “K562 cells in S phase” value was 14.3 ± 0.1% and the “K562 cells in G0/G1 phase” value was 71.5 ± 0.5%. The “Total percentage of K562 cells in the SubG1 and G0/G1 phases” value (shortened to “Total percentage of K562 cells”) in the test with K562 cells (10 μg/mL) is 74.0–77.5%. Moreover, in the test with K562 cells (20 μg/mL), the “K562 cells in SubG1 phase” value is reported as 1.8 ± 0.2%, the “K562 cells in G2/M phase” value amounted to 7.2 ± 0.3%, the “K562 cells in S phase” value is 16.4 ± 0.5% and the “K562 cells in G0/G1 phase” value was 74.5 ± 0.8%.
Consider `NC(=O)CC1NC2(C(=O)Nc3ccccc32)C2(c3ccccc3)C(c3ccccc3)C12c1ccccc1` (centres unmarked) [Compound 18], for which, in the test on K562 cells (5 μg/mL), the “K562 cells in SubG1 phase” value was found to be 3.2 ± 0.1%, the “K562 cells in G2/M phase” value is given as 14.4 ± 0.5%, the “K562 cells in S phase” value worked out at 31.4 ± 0.1% and the “K562 cells in G0/G1 phase” value is 51.0 ± 0.7%. Further, in the test on K562 cells (10 μg/mL), the “K562 cells in SubG1 phase” value was determined as 3.9 ± 0.2%, the “K562 cells in G2/M phase” value came to 7.0 ± 0.4%, the “K562 cells in S phase” value is recorded as 19.0 ± 0.6% and the “K562 cells in G0/G1 phase” value is 70.1 ± 0.5%. For the same compound, the “Total percentage of K562 cells” value with K562 cells (10 μg/mL) is 74.0–77.5%. Further, in the test on K562 cells (20 μg/mL), the “K562 cells in SubG1 phase” value was 3.6 ± 0.1%, the “K562 cells in G2/M phase” value is listed as 8.6 ± 0.3%, the “K562 cells in S phase” value was found to be 22.8 ± 0.4% and the “K562 cells in G0/G1 phase” value came to 65.0 ± 0.4%. The “Part of the scratched strip filled by Sk-mel-2 cells” value (“Part of the scratched strip filled” for short) in test [1] came to 26.1 ± 2.5%.
On to `CC(C)C1NC2(C(=O)Nc3ccccc32)C2(c3ccccc3)C(c3ccccc3)C12c1ccccc1` (centres unmarked) [Compound 8], for which, in the test with K562 cells (5 μg/mL), the “K562 cells in SubG1 phase” value is recorded as 2.1 ± 0.1%, the “K562 cells in G2/M phase” value turned out to be 9.2 ± 0.3%, the “K562 cells in S phase” value amounted to 25.7 ± 0.1% and the “K562 cells in G0/G1 phase” value was determined as 63.1 ± 0.4%. For the same compound, in the test with K562 cells (10 μg/mL), the “K562 cells in SubG1 phase” value stood at 4.1 ± 0.2%; the “K562 cells in G2/M phase” value was found to be 5.9 ± 0.2%; the “K562 cells in S phase” value was 16.6 ± 0.2%; the “K562 cells in G0/G1 phase” value was 73.5% and 73.5 ± 0.5%. Further, the “Total percentage of K562 cells” value in the test with K562 cells (10 μg/mL) is given as 74.0–77.5%. In addition, in the test on K562 cells (20 μg/mL), the “K562 cells in SubG1 phase” value is 3.6 ± 0.2%, the “K562 cells in G2/M phase” value is listed as 7.1 ± 0.1%, the “K562 cells in S phase” value is 17.0 ± 0.2% and the “K562 cells in G0/G1 phase” value is listed as 72.4 ± 0.2%.
In the case of `O=C1Nc2ccc([N+](=O)[O-])cc2C12N1CCCC1C1(c3ccccc3)C(c3ccccc3)C12c1ccccc1` (centres unmarked) [Compound 2], in the test on K562 cells (5 μg/mL), the “K562 cells in SubG1 phase” value came to 5.3 ± 0.3%, the “K562 cells in G2/M phase” value amounted to 17.4 ± 0.4%, the “K562 cells in S phase” value amounted to 29.5 ± 0.6% and the “K562 cells in G0/G1 phase” value is 47.7 ± 0.5%. Besides, in the test on K562 cells (10 μg/mL), the “K562 cells in SubG1 phase” value was 7.7% and 7.7 ± 0.4%; the “K562 cells in G2/M phase” value worked out at 7.8 ± 0.3%; the “K562 cells in S phase” value turned out to be 15.6 ± 0.4%; the “K562 cells in G0/G1 phase” value was 68.8 ± 0.5%. Besides, in the test with K562 cells (10 μg/mL), the “Total percentage of K562 cells” value is 74.0–77.5%. For the same compound, in the test on K562 cells (20 μg/mL), the “K562 cells in SubG1 phase” value is given as 5.8 ± 0.3%, the “K562 cells in G2/M phase” value was 7.3 ± 0.2%, the “K562 cells in S phase” value amounted to 14.5 ± 0.2% and the “K562 cells in G0/G1 phase” value was 72.5 ± 0.5%. Also, the “Part of the scratched strip filled” value in test [1] was found to be 41.5 ± 5.3%.
In the case of `CC[C@H](C)C1NC2(C(=O)Nc3ccccc32)C2(c3ccccc3)C(C(=O)OC)C12c1ccccc1` (some centres unmarked) [Compound 4], in the test with K562 cells (5 μg/mL), the “K562 cells in SubG1 phase” value is 4.3 ± 0.2%, the “K562 cells in G2/M phase” value is given as 16.5 ± 0.2%, the “K562 cells in S phase” value was found to be 26.6 ± 0.7% and the “K562 cells in G0/G1 phase” value is reported as 52.6 ± 0.7%. Moreover, in the test with K562 cells (10 μg/mL), the “K562 cells in SubG1 phase” value amounted to 4.8 ± 0.5%, the “K562 cells in G2/M phase” value came out at 11.9 ± 0.6%, the “K562 cells in S phase” value came out at 26.4 ± 0.3% and the “K562 cells in G0/G1 phase” value amounted to 56.9 ± 0.6%. Moreover, in the test with K562 cells (20 μg/mL), the “K562 cells in SubG1 phase” value amounted to 4.9 ± 0.2%, the “K562 cells in G2/M phase” value was found to be 6.9 ± 0.4%, the “K562 cells in S phase” value is given as 17.4 ± 0.4% and the “K562 cells in G0/G1 phase” value is on record as 71.2 ± 0.4%. Further, in test [1], the “Part of the scratched strip filled” value is 59.7 ± 8.1%.
As to `CSCCC1NC2(C(=O)Nc3ccccc32)C2(c3ccccc3)C(c3ccccc3)C12c1ccccc1` (centres unmarked) [Compound 24], the “Part of the scratched strip filled” value in test [1] is given as 55.9 ± 8.6%.
